“And” between values parts separate entries of the source, which are not always exact repeats. Equal values may be shown once. “Also recorded” adds a separate entry of the source. One block for each compound: values may come before it.
What was measured:
[1] = target: T1, KRAS^G12D-GMPPnP / RAF1-RBD-GFP interaction (Homo sapiens, UniProt P01116, G12D); experiment: KRAS^G12D/RAF1-RBD interaction assay (plate coated with KRAS, RAF1-RBD-GFP fluorescence); format: biochemical
T1 construct: and KRas4B(1-169)[G12D], optimised for expression in E.coli; His6 (N); Avi tag (biotinylated with BirA) (N); TEV site (N); made in house; host or cells: E. coli BL21(DE3) Gold for KRAS; E. coli BL21(DE3) for RAF1-RBD-GFP
Protocol: Phosphoestamers O1–O6 were resynthesised on a 1 μmol scale using the DNA synthesiser and the yields were determined by manually cleaving the final DMT protecting group of each molecule and quantifying the DMT cation by UV-visible spectroscopy (ESI Section 2.4 ^†). The achievement of desired length and purity was confirmed by polyacrylamide gel electrophoresis (Fig. 5a). The resynthesised phosphoestamers were purified away from smaller molecules using C18 spin tips. To ensure the assay was viable, a positive control Ch-3 (Fig. 5a) known to disrupt KRAS^G12D interactions[50] was synthesised. […] Any KRAS sites not blocked by the phosphoestamers would interact with the RAF1-GFP and result in a fluorescent signal which would be detected. In this assay, we first established that both KRAS^G12D-GMPPnP and RAF1-RBD-GFP were required to give a fluorescence signal.
To the 96 well plate, 100 µL was added to each well containing 2 µg/mL KRASG12D-GMPPnP or KRASWT-GMPPnP in coating buffer (see buffers, page 3). […] The emission spectrum o f GFP (490 – 560 nm) was measured on the plate reader.
GraphPad Prism (9.5.1) was used to calculate the area under the curve (AUC) of the emission spectra between 490 and 540 nm. IC50 values were calculated on GraphPad Prism, using the non-linea r regression fit (Sigmoidal, 4PL, X is concentration) analysis. […]

[2] = test system: KRAS^G12D (inactive GDP-form); set-up: method as in PMID 34889605; conditions: binds to the inactive GDP-form of the protein; cited from earlier work
[3] = target: T2, KRAS^WT-GMPPnP / RAF1-GFP interaction (Homo sapiens, UniProt P01116); experiment: KRAS^WT/RAF1-RBD interaction assay (same plate assay); format: biochemical; conditions: 'high' and 'low' concentrations, approximately IC50 ÷ 3 and IC50 × 3
T2 construct: and KRas4B(1-169)[G12D], optimised for expression in E.coli; His6 (N); Avi tag (biotinylated with BirA) (N); TEV site (N); made in house; host or cells: E. coli BL21(DE3) Gold for KRAS; E. coli BL21(DE3) for RAF1-RBD-GFP
Protocol: Since four phosphoestamers were determined to have consistent dissociation activity between KRAS^G12D-GMPPnP and RAF1-GFP, we then used the same assay to determine whether these molecules would have any activity against KRAS^WT-GMPPnP or whether they would be selective for the mutant form (Fig. 5e).
To the 96 well plate, 100 µL was added to each well containing 2 µg/mL KRASG12D-GMPPnP or KRASWT-GMPPnP in coating buffer (see buffers, page 3). The plate was shaken on a plate rotator at 300 rpm and left to incubate at 4 °C overnight. After incubation, the KRASG12D/WT solution was removed, and the plate was then washed with 100 µL per well of blocking buffer twice. 100 µL of blocking buffer was then added per well and the plate was incubated at 37 °C for one hour. […] The emission spectrum o f GFP (490 – 560 nm) was measured on the plate reader.
GraphPad Prism (9.5.1) was used to calculate the area under the curve (AUC) of the emission spectra between 490 and 540 nm. IC50 values were calculated on GraphPad Prism, using the non-linea r regression fit (Sigmoidal, 4PL, X is concentration) analysis.
To the well plate, 100 µL was added to each well containing 2 µg/mL of the 4:1 conjugate of KRASG12D-G M PP nP -streptavidin fluorescein in coating buffer. […] The emission spectrum of fluorescein (500 – 600 nm) was measured using the plate reader. […]

IC50 ([1]; positive control, n = 3): 6350 ± 200 nM
Compound: COc1cccc(-c2ccc(Nc3ccc(CN(C)C)cc3)c(OC)c2F)c1 [Ch-3, reference compound]

Compound: C#Cc1c(F)ccc2cc(O)cc(-c3ncc4c(N5CC6CCC(C5)N6)nc(OC[C@@]56CCCN5C[C@H](F)C6)nc4c3F)c12 [MRTX1133]
IC50 [2]: 5 nM

IC50 ([1]; AUC of GFP emission 490-540 nm, three biological repeats (O4 n = 4)): < 100 nM and 70.9 nM
Compound: NDI-C12-C12-C12-NDI-BPA [Phosphoestamer O2]
Effect on KRAS^WT-GMPPnP/RAF1-GFP interaction [3]: only O5 caused a decrease in fluorescent signal; also recorded: inactive

From article PMC11588021, “Sequence-defined phosphoestamers for selective inhibition of the KRAS^G12D/RAF1 interaction” (Chemical Science, 2024)
